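Cells were grown in 96-well plates and exposed to each compound for 48 hours at five concentrations; endpoints were interpolated linearly between bracketing concentrations, or set to the highest concentration if not reached. The concentration for 50% growth inhibition is given as GI50. At the TGI there is no net growth.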
Tests used:
Test in all cases: growth of human tumour cells (NCI), 48 h
786-0 renal = system: 786-0 renal
A498 renal = system: A498 renal
A549 NSCLC = system: A549 NSCLC
ACHN renal = system: ACHN renal
BT-549 breast = system: BT-549 breast
CAKI-1 renal = system: CAKI-1 renal
CCRF-CEM leukemia = system: CCRF-CEM leukemia
COLO 205 colon = system: COLO 205 colon
DU-145 prostate = system: DU-145 prostate
EKVX NSCLC = system: EKVX NSCLC
HCC-2998 colon = system: HCC-2998 colon
HCT-116 colon = system: HCT-116 colon
HCT-15 colon = system: HCT-15 colon
HL-60(TB) leukemia = system: HL-60(TB) leukemia
HOP-62 NSCLC = system: HOP-62 NSCLC
HOP-92 NSCLC = system: HOP-92 NSCLC
HS 578T breast = system: HS 578T breast
HT29 colon = system: HT29 colon
IGROV1 ovarian = system: IGROV1 ovarian
K-562 leukemia = system: K-562 leukemia
KM12 colon = system: KM12 colon
LOX IMVI melanoma = system: LOX IMVI melanoma
M14 melanoma = system: M14 melanoma
MCF7 breast = system: MCF7 breast
MDA-MB-231 breast = system: MDA-MB-231 breast
MDA-MB-435 = system: MDA-MB-435
MOLT-4 leukemia = system: MOLT-4 leukemia
NCI-H226 lung = system: NCI-H226 lung
NCI-H23 lung = system: NCI-H23 lung
NCI-H460 lung = system: NCI-H460 lung
NCI-H522 lung = system: NCI-H522 lung
NCI/ADR-RES ovarian = system: NCI/ADR-RES ovarian
OVCAR-3 ovarian = system: OVCAR-3 ovarian
OVCAR-4 ovarian = system: OVCAR-4 ovarian
OVCAR-5 ovarian = system: OVCAR-5 ovarian
OVCAR-8 ovarian = system: OVCAR-8 ovarian
PC-3 prostate = system: PC-3 prostate
RPMI-8226 leukemia = system: RPMI-8226 leukemia
RXF 393 renal = system: RXF 393 renal
SF-268 CNS = system: SF-268 CNS
SF-295 CNS = system: SF-295 CNS
SF-539 CNS = system: SF-539 CNS
SK-MEL-2 melanoma = system: SK-MEL-2 melanoma
SK-MEL-28 melanoma = system: SK-MEL-28 melanoma
SK-MEL-5 melanoma = system: SK-MEL-5 melanoma
SK-OV-3 ovarian = system: SK-OV-3 ovarian
SN12C renal = system: SN12C renal
SNB-19 CNS = system: SNB-19 CNS
SNB-75 CNS = system: SNB-75 CNS
SR leukemia = system: SR leukemia
SW-620 colon = system: SW-620 colon
T-47D breast = system: T-47D breast
TK-10 renal = system: TK-10 renal
U251 CNS = system: U251 CNS
UACC-257 melanoma = system: UACC-257 melanoma
UACC-62 melanoma = system: UACC-62 melanoma
UO-31 renal = system: UO-31 renal

NC(Cc1ccc(O)cc1)C(=O)N/N=C/c1ccc(N(CCCl)CCCl)cc1 (centres undefined)
GI50 (786-0 renal): 5.98 µM | TGI (786-0 renal): 75.9 µM | GI50 (A498 renal): 9.78 µM | TGI (A498 renal): 59.5 µM | GI50 (A549 NSCLC): 6.39 µM | TGI (A549 NSCLC): > 100 µM | GI50 (ACHN renal): 6.42 µM | TGI (ACHN renal): > 100 µM | GI50 (BT-549 breast): 19.3 µM | TGI (BT-549 breast): > 100 µM | GI50 (CAKI-1 renal): 1830 nM | TGI (CAKI-1 renal): 18.4 µM | GI50 (CCRF-CEM leukemia): 231 nM | TGI (CCRF-CEM leukemia): > 100 µM | GI50 (COLO 205 colon): 44.5 µM | TGI (COLO 205 colon): > 100 µM | GI50 (DU-145 prostate): 5.19 µM | TGI (DU-145 prostate): 34.7 µM | GI50 (EKVX NSCLC): 24.2 µM | TGI (EKVX NSCLC): > 100 µM | GI50 (HCC-2998 colon): 24.1 µM | TGI (HCC-2998 colon): > 100 µM | GI50 (HCT-116 colon): 21.8 µM | TGI (HCT-116 colon): > 100 µM | GI50 (HCT-15 colon): 38.6 µM | TGI (HCT-15 colon): > 100 µM | GI50 (HL-60(TB) leukemia): 75.7 nM | TGI (HL-60(TB) leukemia): 14.6 µM | GI50 (HOP-62 NSCLC): 11.1 µM | TGI (HOP-62 NSCLC): > 100 µM | GI50 (HOP-92 NSCLC): 21.4 µM | TGI (HOP-92 NSCLC): > 100 µM | GI50 (HS 578T breast): 32 µM | TGI (HS 578T breast): > 100 µM | GI50 (HT29 colon): 28.5 µM | TGI (HT29 colon): > 100 µM | GI50 (IGROV1 ovarian): 11.5 µM | TGI (IGROV1 ovarian): > 100 µM | GI50 (K-562 leukemia): 3.59 µM | TGI (K-562 leukemia): > 100 µM | GI50 (KM12 colon): 24.6 µM | TGI (KM12 colon): > 100 µM | GI50 (LOX IMVI melanoma): 5.73 µM | TGI (LOX IMVI melanoma): 68.4 µM | GI50 (M14 melanoma): 17.5 µM | TGI (M14 melanoma): 81.2 µM | GI50 (MCF7 breast): 7.52 µM | TGI (MCF7 breast): > 100 µM | GI50 (MDA-MB-231 breast): 5.25 µM | TGI (MDA-MB-231 breast): 32.6 µM | GI50 (MDA-MB-435): 12.2 µM | TGI (MDA-MB-435): 65.4 µM | GI50 (MOLT-4 leukemia): 454 nM | TGI (MOLT-4 leukemia): > 100 µM | GI50 (NCI-H226 lung): 3.01 µM | TGI (NCI-H226 lung): 31.6 µM | GI50 (NCI-H23 lung): 12.3 µM | TGI (NCI-H23 lung): > 100 µM | GI50 (NCI-H460 lung): 647 nM | TGI (NCI-H460 lung): 26.7 µM | GI50 (NCI-H522 lung): 25.1 µM | TGI (NCI-H522 lung): > 100 µM | GI50 (NCI/ADR-RES ovarian): 17.3 µM | TGI (NCI/ADR-RES ovarian): > 100 µM | GI50 (OVCAR-3 ovarian): 14.2 µM | TGI (OVCAR-3 ovarian): 62 µM | GI50 (OVCAR-4 ovarian): 28.4 µM | TGI (OVCAR-4 ovarian): > 100 µM | GI50 (OVCAR-5 ovarian): 27.4 µM | TGI (OVCAR-5 ovarian): > 100 µM | GI50 (OVCAR-8 ovarian): 5.58 µM | TGI (OVCAR-8 ovarian): 55 µM | GI50 (PC-3 prostate): 11.7 µM | TGI (PC-3 prostate): > 100 µM | GI50 (RPMI-8226 leukemia): 10.1 µM | TGI (RPMI-8226 leukemia): > 100 µM | GI50 (RXF 393 renal): 20.6 µM | TGI (RXF 393 renal): > 100 µM | GI50 (SF-268 CNS): 2810 nM | TGI (SF-268 CNS): 87.8 µM | GI50 (SF-295 CNS): 1370 nM | TGI (SF-295 CNS): 6.35 µM | GI50 (SF-539 CNS): 4.26 µM | TGI (SF-539 CNS): 68.3 µM | GI50 (SK-MEL-2 melanoma): 60.6 µM | TGI (SK-MEL-2 melanoma): > 100 µM | GI50 (SK-MEL-28 melanoma): 58.7 µM | TGI (SK-MEL-28 melanoma): > 100 µM | GI50 (SK-MEL-5 melanoma): 19.5 µM | TGI (SK-MEL-5 melanoma): > 100 µM | GI50 (SK-OV-3 ovarian): 47.9 µM | TGI (SK-OV-3 ovarian): > 100 µM | GI50 (SN12C renal): 1420 nM | TGI (SN12C renal): > 100 µM | GI50 (SNB-19 CNS): 29.9 µM | TGI (SNB-19 CNS): > 100 µM | GI50 (SNB-75 CNS): 12.6 µM | TGI (SNB-75 CNS): > 100 µM | GI50 (SR leukemia): 189 nM | TGI (SR leukemia): 20.4 µM | GI50 (SW-620 colon): 16 µM | TGI (SW-620 colon): > 100 µM | GI50 (T-47D breast): 10.1 µM | TGI (T-47D breast): > 100 µM | GI50 (TK-10 renal): 25.2 µM | TGI (TK-10 renal): > 100 µM | GI50 (U251 CNS): 27.8 µM | TGI (U251 CNS): > 100 µM | GI50 (UACC-257 melanoma): 15.6 µM | TGI (UACC-257 melanoma): 98.5 µM | GI50 (UACC-62 melanoma): 2690 nM | TGI (UACC-62 melanoma): 27 µM | GI50 (UO-31 renal): 3.95 µM | TGI (UO-31 renal): 23.6 µM

Reference: PubChem BioAssay (NCI)
